{"source": "patent US5830770A", "about": "“Hapten-protein conjugates for use in detection of organophosphorus compounds” (priority 1993, dated 1998)", "assay_type_in_all_cases": "binding", "key": {"[1]": {"test_system": "antisera from rabbit 21", "assay": "Competitive/inhibition ELISA, antisera pre-incubated with unconjugated OP, 1 μg/ml OP-Ova", "conditions": "1 hour at 25° C.", "protocol": "(§1) An ELISA was used to screen the antisera for polyclonal antibodies to the generic hapten/conjugate of the invention using the following protocol. Microtitre plates (Costar) were coated with the appropriate hapten conjugate with ovalbumin by diluting that in 0.05M sodium hydrogen carbonate/sodium carbonate buffer (pH 9.6) to give an optimum protein concentration of 1 μg/ml previously determined by chequerboard titration; protein found by Bradford assay. 100 μl was added to each microtitre plate well and the plates placed in a moist chamber overnight, washed 3 times with 0.15 phosphate buffered saline pH7.2 with 0.05% Tween 20[RTM]: PBST), and blotted dry. Blocking was carried out by adding 250 μl per well of 5% skimmed milk for 1 hour at 25° C.\n(§2) After two further washings the coated microplates were stored at -20° C. until required, whereon they were washed once with PBST. Antisera were diluted (1/1000 for general screening or doubling dilutions up to 1/512,000 for titration assays) in PSBT, applied to microtitre wells in triplicate in 50 μl amounts and incubated in a moist chamber at 25° C. for 1 hour (appropriate positive and negative controls were included--PBST, negative rabbit serum and positive serum when it had been produced). Wells were then washed 3 times in PBST and 200 μl of a 1:1500 dilution of swine anti-rabbit immunoglobulin conjugated to horseradish peroxidase (DAKO) was added to each well. Plates were incubated once more for 1 hour at 25° C. then washed 3 times with PBST.\n(§3) Tetramethylbenzidine (TMB) enzyme substrate solution was prepared by adding 400 μl of 6.0 g/l TMB in DMSO to 24.5 ml of 0.1M sodium acetate buffer pH5.5 with 100 μl of 1% H2 O2 and 100 μl added to the wells. The microplates were incubated for 15 minutes in the dark at 25° C. before the reaction was stopped by adding 50 μl of 2.5M H2 SO4 and the absorbance read at 450 nm against air. Results: are given below with those of Example 6.\n(§4) This assay was carried out in the same manner as that of Example 5 with the following modifications. After plate coating the various dilutions of antisera were incubated with various concentrations of analyte solution for 1 to 2 hours at 25° C. or overnight at 4° C. Antiserum dilutions tested were 1/1000, 1/2000, 1/5000 and 1/10000 and the concentrations of the analyte ranged from 200 to 0.001 μg/ml. Coating of generic hapten-ovalbumin was at 1 μg/ml and later other coating strengths were tested ranging from 400 to 12.5 ng/ml. Note: cross reactivity in all cases was checked by carrying out an indirect ELISA where plates were coated with the blocking agents or BSA or ovalbumin at 1 μg/ml. Skimmed milk, foetal calf serum (both 5%), caesin (0.3%) or fish skin gelatin (0.5%) were selected as the blocking agent in this regard. Use of competitive assay is preferred for determining cross-reactivity.\n(§5) 400 to 0.012 μg/ml conjugate for 200 to 0.001 μg/ml analyte detection."}, "[2]": {"test_system": "antisera from rabbit 20", "assay": "Competitive/inhibition ELISA, antisera pre-incubated with unconjugated OP, 1 μg/ml OP-Ova", "conditions": "1 hour at 25° C.", "protocol": "as §1, §2, §3, §4, §5"}, "[3]": {"test_system": "antisera from rabbit 19", "assay": "Competitive/inhibition ELISA, antisera pre-incubated with unconjugated OP, 1 μg/ml OP-Ova", "conditions": "1 hour at 25° C.", "protocol": "as §1, §2, §3, §4, §5"}, "[4]": {"test_system": "Rabbit 20 antisera", "assay": "Competitive/inhibition ELISA, antisera preincubated with OP for 2 hours, plate coated with 400 μg/ml OP-Ova", "conditions": "2 hours at 25° C.", "protocol": "as §1, §2, §3, §4, §5"}}, "data": [{"smiles": "COP(=S)(OC)OCCCCO", "note": "[OP]", "values": [{"measurement": "absorbance after pre-incubation with OP", "setting": "[1]; OP 0.01 μg/ml", "result": 1.52}, {"measurement": "absorbance after pre-incubation with OP", "setting": "[1]; OP 0.1 μg/ml", "result": 1.42}, {"measurement": "absorbance after pre-incubation with OP", "setting": "[1]; OP 0.4 μg/ml", "result": 1.45}, {"measurement": "absorbance after pre-incubation with OP", "setting": "[1]; OP 3.1 μg/ml", "result": 1.34}, {"measurement": "absorbance after pre-incubation with OP", "setting": "[1]; OP 12.5 μg/ml", "result": 1.02}, {"measurement": "absorbance after pre-incubation with OP", "setting": "[1]; OP 50.0 μg/ml", "result": 1.24}, {"measurement": "absorbance after pre-incubation with OP", "setting": "[2]; OP 0.01 μg/ml", "result": 1.95}, {"measurement": "absorbance after pre-incubation with OP", "setting": "[2]; OP 0.1 μg/ml", "result": 1.95}, {"measurement": "absorbance after pre-incubation with OP", "setting": "[2]; OP 0.4 μg/ml", "result": 1.81}, {"measurement": "absorbance after pre-incubation with OP", "setting": "[2]; OP 3.1 μg/ml", "result": 1.54}, {"measurement": "absorbance after pre-incubation with OP", "setting": "[2]; OP 12.5 μg/ml", "result": 1.31}, {"measurement": "absorbance after pre-incubation with OP", "setting": "[2]; OP 50.0 μg/ml", "result": 1.19}, {"measurement": "absorbance after pre-incubation with OP", "setting": "[3]; OP 0.01 μg/ml", "result": 1.83}, {"measurement": "absorbance after pre-incubation with OP", "setting": "[3]; OP 0.1 μg/ml", "result": 1.73}, {"measurement": "absorbance after pre-incubation with OP", "setting": "[3]; OP 0.4 μg/ml", "result": 1.66}, {"measurement": "absorbance after pre-incubation with OP", "setting": "[3]; OP 3.1 μg/ml", "result": 1.50}, {"measurement": "absorbance after pre-incubation with OP", "setting": "[3]; OP 12.5 μg/ml", "result": 1.36}, {"measurement": "absorbance after pre-incubation with OP", "setting": "[3]; OP 50.0 μg/ml", "result": 1.34}, {"measurement": "absorbance after preincubation with OP", "setting": "[4]; antisera 1/1000, OP conc 0.001", "result": 1.38}, {"measurement": "absorbance after preincubation with OP", "setting": "[4]; antisera 1/1000, OP conc 0.01", "result": 1.58}, {"measurement": "absorbance after preincubation with OP", "setting": "[4]; antisera 1/1000, OP conc 0.1", "result": 1.48}, {"measurement": "absorbance after preincubation with OP", "setting": "[4]; antisera 1/1000, OP conc 1.0", "result": 1.24}, {"measurement": "absorbance after preincubation with OP", "setting": "[4]; antisera 1/1000, OP conc 10.0", "result": 0.94}, {"measurement": "absorbance after preincubation with OP", "setting": "[4]; antisera 1/1000, OP conc 20.0", "result": 0.87}, {"measurement": "absorbance after preincubation with OP", "setting": "[4]; antisera 1/1000, OP conc 100.0", "result": 0.82}, {"measurement": "absorbance after preincubation with OP", "setting": "[4]; antisera 1/1000, OP conc 200.0", "result": 0.89}, {"measurement": "absorbance after preincubation with OP", "setting": "[4]; antisera 1/2000, OP conc 0.001", "result": 1.10}, {"measurement": "absorbance after preincubation with OP", "setting": "[4]; antisera 1/2000, OP conc 0.01", "result": 1.11}, {"measurement": "absorbance after preincubation with OP", "setting": "[4]; antisera 1/2000, OP conc 0.1", "result": 1.04}, {"measurement": "absorbance after preincubation with OP", "setting": "[4]; antisera 1/2000, OP conc 1.0", "result": 0.87}, {"measurement": "absorbance after preincubation with OP", "setting": "[4]; antisera 1/2000, OP conc 10.0", "result": 0.74}, {"measurement": "absorbance after preincubation with OP", "setting": "[4]; antisera 1/2000, OP conc 20.0", "result": 0.67}, {"measurement": "absorbance after preincubation with OP", "setting": "[4]; antisera 1/2000, OP conc 100.0", "result": 0.67}, {"measurement": "absorbance after preincubation with OP", "setting": "[4]; antisera 1/2000, OP conc 200.0", "result": 0.69}]}]}
